Results on 1 compound are retold here after PMC9645260, “Small-molecule inhibitors of P-Rex guanine-nucleotide exchange factors” (Small GTPases, 2022).

What all share (type): biochemical
One assay deals with T1, DOCK10 (DHR2) (Homo sapiens, UniProt Q96BY6).
T1 construct: The DOCK10 DHR2 domain, produced in and purified from bacteria; host or cells: bacteria
T1 sequence (Q96BY6 1690-2150 limits assumed): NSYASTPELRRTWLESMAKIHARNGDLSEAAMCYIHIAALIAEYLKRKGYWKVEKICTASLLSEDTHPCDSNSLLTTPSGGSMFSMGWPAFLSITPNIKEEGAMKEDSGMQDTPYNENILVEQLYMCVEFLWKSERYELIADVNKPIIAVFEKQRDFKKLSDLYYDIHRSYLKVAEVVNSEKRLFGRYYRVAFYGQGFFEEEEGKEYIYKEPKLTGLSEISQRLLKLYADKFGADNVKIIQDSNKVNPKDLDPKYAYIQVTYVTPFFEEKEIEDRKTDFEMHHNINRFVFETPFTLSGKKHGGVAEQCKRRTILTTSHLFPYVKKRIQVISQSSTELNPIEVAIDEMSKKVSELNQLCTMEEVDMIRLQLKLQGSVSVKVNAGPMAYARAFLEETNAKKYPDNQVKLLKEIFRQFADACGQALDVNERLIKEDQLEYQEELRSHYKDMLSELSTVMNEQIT
Kind of assay: Liposome-based GEF activity assay, DOCK10. To be noted: 10 µM, 765 nM DOCK10 DHR2. Here is the method: (§1) Full-length N-terminally EE-tagged P-Rex1, P-Rex2, the P-Rex1 DH and DHPH domains and the P-Rex2 DH domain were produced in Sf9 cells using baculoviral transduction and were purified using anti-EE beads, as previously described. Briefly, frozen pellets from 500 ml of Sf9 culture infected with P-Rex expressing high-titre baculovirus were resuspended in ice-cold lysis Sf9-cell lysis buffer 2 (1x PBS, 1% Triton X-100, 5 mM EGTA, 1 mM EDTA, 25 mM NaF, 20 mM β-glycerophosphate, 1 mM DTT, 100 µM PMSF, 10 μg/ml each of leupeptin, pepstatin A, aprotinin and antipain) for 5 min and then ultracentrifuged at 118,000 × g for 1 h at 4°C. Supernatants were incubated with pre-washed anti-EE beads for 90 min on ice with end-over-end rotation. […] Protein concentration and purity were determined by coomassie staining of SDS-PAGE gels. […]
(§2) Liposome-based GEF activity assays were carried out essentially as described, except that GEFs were incubated with inhibitor compounds prior to the assay. […] Small GTPases were isolated using anti-EE antibody-coupled Sepharose beads or glutathione Sepharose beads, as appropriate, by incubation on ice for 90 min with end-over-end rotation, four washes in ice-cold wash buffer and resuspension of beads in Ultima Gold scintillation fluid (Perkin Elmer). ^35S-GTPγS incorporation was assessed by scintillation counting (Packard 1600TR, Liquid Scintillation Analyser).

In the next assay the target is T2, Tiam1 (full-length) (Homo sapiens, UniProt Q13009).
T2 construct: Full-length Tiam1, expressed in and purified from Sf9 cells; host or cells: Sf9 cells
Kind of assay: Liposome-based GEF activity assay, Tiam1. To be noted: 10 µM, 50 nM full-length Tiam1. Here is the method: as §1, §2

The next assay has as its target T3, ITSN1 (DHPH) (Homo sapiens, UniProt Q15811).
T3 construct: The ITSN1 DHPH domains and Ect2 DHPH domains, produced in and purified from bacteria; host or cells: bacteria
T3 sequence (Q15811 1229-1580 limits assumed): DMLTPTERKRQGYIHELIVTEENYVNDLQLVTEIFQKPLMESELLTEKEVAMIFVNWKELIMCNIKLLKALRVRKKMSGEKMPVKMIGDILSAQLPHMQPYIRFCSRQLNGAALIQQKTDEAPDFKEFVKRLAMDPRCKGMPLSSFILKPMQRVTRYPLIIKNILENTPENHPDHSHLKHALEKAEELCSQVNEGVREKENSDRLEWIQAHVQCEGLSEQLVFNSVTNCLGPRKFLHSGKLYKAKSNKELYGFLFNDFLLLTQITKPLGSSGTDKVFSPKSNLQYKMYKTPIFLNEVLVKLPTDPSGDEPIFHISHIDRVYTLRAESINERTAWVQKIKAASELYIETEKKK
Kind of assay: Liposome-based GEF activity assay, ITSN1. To be noted: 10 µM, 100 nM ITSN1 DHPH. Here is the method:
as §1, §2

A further assay deals with T4, P-Rex1 DH domain (Homo sapiens, UniProt Q8TCU6).
T4 construct: 200 nM iDH EE-P-Rex1 DH domain (compounds 11–29); made in house; host or cells: Sf9 cells (baculovirus)
Kind of assay: Liposome-based GEF activity assay, isolated P-Rex1 DH domain. To be noted: 10 µM, 200 nM DH domain, without PIP3; read-out: inhibition of constitutive Rac-GEF activity of isolated P-Rex1 DH domain. As for the experimental part: Full-length N-terminally EE-tagged P-Rex1, P-Rex2, the P-Rex1 DH and DHPH domains and the P-Rex2 DH domain were produced in Sf9 cells using baculoviral transduction and were purified using anti-EE beads, as previously described. Briefly, frozen pellets from 500 ml of Sf9 culture infected with P-Rex expressing high-titre baculovirus were resuspended in ice-cold lysis Sf9-cell lysis buffer 2 (1x PBS, 1% Triton X-100, 5 mM EGTA, 1 mM EDTA, 25 mM NaF, 20 mM β-glycerophosphate, 1 mM DTT, 100 µM PMSF, 10 μg/ml each of leupeptin, pepstatin A, aprotinin and antipain) for 5 min and then ultracentrifuged at 118,000 × g for 1 h at 4°C. Supernatants were incubated with pre-washed anti-EE beads for 90 min on ice with end-over-end rotation. Beads were washed 4 times in wash buffer (2x PBS, 0.1% Triton X-100, 1 mM EGTA) and 5 times in elution buffer (1x PBS, 10% glycerol, 1 mM DTT, 1 mM EGTA, 0.01% Na azide), and protein was eluted by incubation with elution buffer containing Ac-EEYMPME peptide as described above. Protein was concentrated in a YM-100 Centricon (Millipore) at 5000 × g at 4°C. Fatty acid-free BSA and glycerol were added to final concentrations of 2 mg/ml and 50%, respectively. Protein concentration and purity were determined by coomassie staining of SDS-PAGE gels. Full-length Tiam1, expressed in and purified from Sf9 cells, was a kind gift from Angeliki Malliri, CRUK Manchester Institute, UK. […]
as §2

T4 sequence (Q8TCU6 49-240 limits assumed): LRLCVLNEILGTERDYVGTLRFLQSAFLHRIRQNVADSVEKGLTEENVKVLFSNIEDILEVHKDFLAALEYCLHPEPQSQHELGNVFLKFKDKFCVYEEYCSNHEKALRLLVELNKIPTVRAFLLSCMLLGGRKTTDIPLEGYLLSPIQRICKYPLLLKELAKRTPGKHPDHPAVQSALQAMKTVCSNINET
T2 sequence (Q13009 whole entry): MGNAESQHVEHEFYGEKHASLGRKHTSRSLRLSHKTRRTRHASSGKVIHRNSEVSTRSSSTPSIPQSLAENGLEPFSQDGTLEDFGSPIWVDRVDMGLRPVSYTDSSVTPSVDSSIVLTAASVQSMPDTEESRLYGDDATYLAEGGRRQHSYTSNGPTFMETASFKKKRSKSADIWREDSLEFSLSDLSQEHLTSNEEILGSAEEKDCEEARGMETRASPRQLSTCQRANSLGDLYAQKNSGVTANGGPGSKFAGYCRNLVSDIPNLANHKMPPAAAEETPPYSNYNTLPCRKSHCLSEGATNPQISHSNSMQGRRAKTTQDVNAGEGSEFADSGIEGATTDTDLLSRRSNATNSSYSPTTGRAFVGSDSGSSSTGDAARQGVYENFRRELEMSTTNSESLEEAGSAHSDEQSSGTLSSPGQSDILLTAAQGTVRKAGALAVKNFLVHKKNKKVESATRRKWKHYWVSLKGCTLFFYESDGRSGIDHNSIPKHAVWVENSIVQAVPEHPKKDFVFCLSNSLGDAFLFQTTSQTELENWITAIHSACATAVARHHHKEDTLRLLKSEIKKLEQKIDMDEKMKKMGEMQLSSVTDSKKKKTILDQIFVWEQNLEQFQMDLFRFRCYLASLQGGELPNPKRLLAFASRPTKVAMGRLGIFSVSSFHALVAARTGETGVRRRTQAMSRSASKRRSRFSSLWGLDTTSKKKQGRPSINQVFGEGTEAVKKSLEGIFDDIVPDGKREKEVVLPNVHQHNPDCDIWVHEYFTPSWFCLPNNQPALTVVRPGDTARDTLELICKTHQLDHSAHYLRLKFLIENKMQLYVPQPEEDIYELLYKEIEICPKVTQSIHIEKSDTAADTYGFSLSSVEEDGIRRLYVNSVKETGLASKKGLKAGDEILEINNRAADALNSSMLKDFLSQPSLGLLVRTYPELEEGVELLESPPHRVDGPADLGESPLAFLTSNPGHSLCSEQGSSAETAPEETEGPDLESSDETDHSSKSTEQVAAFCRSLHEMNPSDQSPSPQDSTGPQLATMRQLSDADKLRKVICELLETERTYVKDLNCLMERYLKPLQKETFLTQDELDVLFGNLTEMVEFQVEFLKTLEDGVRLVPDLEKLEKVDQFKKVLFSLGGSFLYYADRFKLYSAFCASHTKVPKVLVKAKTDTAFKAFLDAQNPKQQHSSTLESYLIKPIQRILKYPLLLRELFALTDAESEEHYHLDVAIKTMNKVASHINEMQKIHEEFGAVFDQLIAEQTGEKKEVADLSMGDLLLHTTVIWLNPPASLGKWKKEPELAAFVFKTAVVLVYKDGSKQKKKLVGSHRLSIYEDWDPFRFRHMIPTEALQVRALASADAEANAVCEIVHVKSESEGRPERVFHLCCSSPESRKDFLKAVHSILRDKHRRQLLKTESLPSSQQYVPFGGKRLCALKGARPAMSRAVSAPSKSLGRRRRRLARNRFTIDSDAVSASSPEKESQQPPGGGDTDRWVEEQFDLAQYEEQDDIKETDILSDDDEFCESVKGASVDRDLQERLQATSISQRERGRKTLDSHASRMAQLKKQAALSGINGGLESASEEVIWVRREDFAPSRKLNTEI

One may read the inhibition as the relative decrease from the control value, in per cent. `COc1ccc(-c2[nH]nc3c2C(c2ccc(-c4ccc(Cl)cc4)o2)C(C#N)=C(N)O3)cc1` (stereo not shown) [PREX-in1, 6-amino-4-[5-(4-chlorophenyl)-2-furyl]-3-(4-methoxyphenyl)-2,4-dihydropyrano[2,3-c]pyrazole-5-carbonitrile]: the “effect on GEF activity of DOCK10” value at DOCK10 (DHR2) is reported as “none of the other GEFs were affected”. Further, at Tiam1 (full-length), the “effect on GEF activity of Tiam1” value is “none of the other GEFs were affected”. Further, the “effect on GEF activity of ITSN1” value at ITSN1 (DHPH) is “none of the other GEFs were affected”. On P-Rex1 DH domain, the inhibition at 10 µM was 98%.
